Measured values from patent publication US5430154A, “2-(4-piperidinyl)-1H-pyrido[4,3-b]-indol-1-ones and related compounds” (Hoechst-Roussel Pharmaceuticals Inc., priority 1993, dated 1995).
Like-named read-outs stand apart in the source and are kept apart here.

Experiments:
[1] = system: apomorphine-induced climbing; assay: climbing mice assay (antagonism of apomorphine-induced climbing; antipsychotic activity); type: in vivo, CK-1 male mice; details: Mus musculus, ip, read-out: Antipsychotic Activity ED50
Experimental: The subject CK-1 male mice (23-27 grams) are group-housed under standard laboratory conditions. The mice are individually placed in wire mesh stick cages (4"×4" by 10") and are allowed one hour for adaptation and exploration of the new environment. […] For evaluation of climbing, 3 readings are taken at 10, 20 and 30 minutes after apomorphine administration according to the following scale: Mice consistently climbing before the injection of apormorphine are discarded. With full-developed apomorphine climbing, the animals are hanging onto the cage wails, rather motionless, over longer periods of time. By contrast, climbs due to mere motor stimulation usually only last a few seconds. The climbing scores are individually totaled (maximal score; 6 per mouse over 3 readings) and the total score of the control group (vehicle intraperitioneally-apomorphine subcutaneously) is set to 100%.

[2] = system: apomorphine-induced stereotypy; assay: antagonism of apomorphine-induced stereotypy; type: in vivo, male Wistar rats; details: apomorphine 1.5 mg/kg s.c., rats
Experimental: Antagonism of apomorphine-induced stereotypy is a property of many antipsychotics. […] Antagonism of apomorphine-induced stereotypy of the present 2-(4-piperidinyl)-1H-pyrido[4,3-b]indol-1-ones is determined by methods similar to those described by N. E. Anden, et al., J. Pharma.
Drugs are prepared using distilled water and, if insoluble, a suitable surfactant is added. The route of administration may be varied and the dosage volume is 10 ml/kg. For a primary screen, a group size of six is used. Drug is administered one hour prior to scoring and the animals are placed in individual clear plastic cages (24×14×13 cm). The control group receives vehicle. Apomorphine hydrochloride solution is prepared at a concentration of 1.5 mg/10 ml in a 0.03% ascorbic acid stock solution (30 mg of ascorbic acid in 100 ml of 1% saline) to increase the stability of the apomorphine hydrochloride while in solution. […] Fifty minutes after drug dosing, stereotypic behavior is noted. Stereotypic activity is defined as sniffing, licking or chewing behavior that occurs in a repetitive manner and is rated as follows: Constant sniffing, licking or chewing without interruption; the animal is considered protected if this behavior is interrupted.
The percent effectiveness of a drug is determined by the number of animals protected in each group.
A dose-response is run in the same manner as a primary screen except that a group size of 10 is used and the animals are dosed in a randomized manner. One group receives vehicle. ED50 for stereotypy are calculated by means of probit analysis.

[3] = 30 min before apomorphine 1.5 mg/kg s.c., mice, linear regression

Compound	ED50 [1, 3]	% Inhibition of Apomorphine-Induced Stereotypy ([2]; dose 24 mg/kg ip)	ED50 [1]	% Inhibition of Apomorphine-Induced Stereotypy ([2]; dose 0.2 mg/kg ip)	% Inhibition of Apomorphine-Induced Stereotypy ([2]; dose 38 mg/kg ip)
Cl.Cn1c2c(c3ccccc31)C(=O)N(C1CCN(Cc3ccccc3)CC1)CC2 [5-Methyl-2-[1-(phenylmethyl)-4-piperidinyl]-2,3,4,5-tetrahydro-1H-pyrido[4,3-b]-indole-1-one hydrochloride]	4.6 mg/kg	50%	–	–	–
O=C(CCCN1CCC(O)(c2ccc(Cl)cc2)CC1)c1ccc(F)cc1 [haloperidol]	–	–	0.14 mg/kg	50%	–
CSc1ccc2c(c1)N(CCC1CCCCN1C)c1ccccc1S2 (stereo not drawn) [thioridazine]	3.6 mg/kg	–	–	–	50%
